We go through one substance from patent publication US20230255873A1, “COSMETIC OR DERMATOLOGICAL PEPTIDE-BASED TREATMENT OF THE SKIN AND ITS INTEGUMENTS” (Sederma, priority 2020, published 2023).

The star is where a group is joined. Palmitoyl = CCCCCCCCCCCCCCCC(=O)*

The subject of one experiment is equivalent skins. Kind of experiment: Thickness of the stratum corneum on equivalent skins. The format is cell-based, human. The note with it: 2 days of contact, vs control. As for the experimental part:
Equivalent skins were prepared by first manufacturing an equivalent dermis, then once it contracted, human keratinocytes were seeded on the surface of the gel. After 14 days, equivalent skins were obtained, on which carbopol gels containing the peptide of the invention or the solvent alone were applied to their surface. After 2 days of contact, the skins were frozen to be sectioned into thin 7 μm slides and then marked in order to visualize the macrostructure of the layers. A quantification of the thickness of the stratum corneum was carried out on photos using an image software.

The next experiment concerns Propionibacterium acnes. Kind of experiment: Propionibacterium acnes growth inhibition test (time to OD of 1). The format is cell-based. The note with it: control 26 hours. As for the experimental part:
1.4—Propionibacterium acnes Growth Inhibition Test Principle: Suspensions of Propionibacterium acnes of equivalent density are cultured in a suitable medium in the presence (test case) or absence (control case) of the preferred peptide according to the invention, in anaerobic condition, at 37° C. Samples are taken at regular intervals to measure the OD at 600 nm, to follow the growth of the bacterial population over time. The growth curve of each culture can therefore be established.

The subject of experiment [1] is extracellular lipases of P. acnes. Kind of experiment: Lipase activity of P. acnes (4-MUO probe). The note with it: vs solvent control, n = 6. The format is biochemical, Propionibacterium acnes. The procedure: A culture of P. acnes was carried out. The cells were then separated from the culture medium containing the lipases excreted by P. acnes. The peptide of the invention was added to samples of this cell-free medium and lipase activity was monitored using a fluorescent 4-methylumbelliferyl oleate (4-MUO) probe which is converted by lipases to fluorescent 4-methylumbelliferone, and whose signal has been recorded.

The test system of a further experiment is S. epidermidis. Kind of experiment: S. epidermidis growth (selectivity test). In kind it is cell-based. The note with it: 6 ppm and 12 ppm, 48 hours. As for the experimental part: S. epidermidis was inoculated in an appropriate medium and its growth was followed over time. The peptide according to the invention (6 ppm and 12 ppm) was tested on these cells for 48 hours in comparison with the control case (n=6).

In the next experiment the test system is NHKs exposed to UVB. Kind of experiment: ELISA of pro-inflammatory mediators (PGE2 and IL-6) on NHK exposed to UVB. The format is cell-based, human. The procedure: 1.1—Immuno-Enzymatic Assays (ELISA) on Normal Human Keratinocyte (NHK) Culture Principle: NHKs in culture and at confluence are brought into contact with the peptide of the invention at different concentrations for 24 hours in a medium allowing their survival. Then the cell layers are irradiated with UVB (light stress, intended to mimic an experimental cutaneous micro-inflammation) in a physiological buffer and again brought into contact with the products to be tested for 24 hours. At the end of this incubation, the culture media are assayed by ELISA to evaluate the amounts of pro-inflammatory mediators (PGE2 and IL-6) produced by these cells in response to irradiation. The results are compared to the control. A decrease in the amount of mediators produced will be interpreted as a limitation of damages related to inflammation. An estimate of the cell number is made on the attached layer to reduce the assay results to the number of cells. A study of variances and a Student t test are carried out to judge the significance of the results.
For orientation: An ELISA detects its analyte on a solid surface through an enzyme-linked reagent.

Experiment [2] has as its system Normal Human Fibroblasts (NHF). Kind of experiment: Immuno-enzymatic tests on normal human fibroblasts (NHF) culture. In kind it is cell-based. The note with it: 3 days. As for the experimental part: 1.3—Immuno-Enzymatic Tests on Normal Human Fibroblasts (NHF) Culture Principle: Normal Human Fibroblasts (NHF) are cultured in 24-well plates for 24 hours in the proliferation medium until confluence. The cells are then brought into contact or not (control case) with the preferred peptide according to the invention for 3 days in a medium without serum. The culture media are collected and the concentrations of various elements of the dermis or the basement membrane (PIP (carboxy-terminal propeptide of procollagen type I), collagen I, collagen IV, fibronectin) are measured by ELISA assays. An estimate of cell viability is also carried out at the end of culture, in order to weight the data from the ELISA, using an assay with the Hoechst 33258 reagent (DNA intercalator). A study of variances and a Student t test for paired series were carried out to judge the significance of the results.

Experiment [3] relates to normal human keratinocytes (NHK). Kind of experiment: Involucrin quantification by immunohistochemistry in NHK. The format is cell-based. The note with it: 5 ppm. As for the experimental part: Normal human keratinocytes (NHK) are grown on wells plate. When subconfluence was reached, cells received various concentrations of the peptides. After few days, evaluation of differentiation is compared to solvent control under microscope and cells are fixed to allow the study of involucrin by immunohistochemistry.
Involucrin is an early marker of keratinocytes differentiation. The below table show the percentage of variation of involucrin vs. Control.

“palmitoyl-lysyl-threonyl-serine-lysyl-serine (Palmitoyl-KTSKS-OH; SMILES CCCCCCCCCCCCCCCC(=O)N[C@@H](CCCCN)C(=O)N[C@H](C(=O)N[C@@H](CO)C(=O)N[C@@H](CCCCN)C(=O)N[C@@H](CO)C(=O)O)[C@@H](C)O) [Pal-KTSKS]”: the entries for the “Thickness of the stratum corneum, Variation (%)” value with equivalent skins (8 ppm of peptide in carbopol gel) and in the experiment on equivalent skins (10 ppm of peptide in carbopol gel) were “+150%; p < 0.01” and “+143%; p < 0.05”, respectively. Further, the “Growth of P. acnes: time required to reach an OD of 1” value with Propionibacterium acnes (6 ppm of peptide) is 54 h; in the experiment with Propionibacterium acnes (9 ppm of peptide) it was 103 h; in the experiment with Propionibacterium acnes (12 ppm of peptide), 135 h. For the same substance, the results for the “Lipase activity of P. acnes, Variation (%)” value in experiment [1] (6 ppm of peptide), in experiment [1] (9 ppm of peptide) and in experiment [1] (12 ppm of peptide) were −22%; p < 0.01, −64%; p < 0.01 and −88%; p < 0.01, respectively. Further, the “Growth of S. epidermidis relative to control” value with S. epidermidis is given as “slight, temporary slowdown in growth”. For the same substance, the “IL6 secretion, variation compared to the control” value is −4% (nsd) in the experiment on NHKs exposed to UVB (3 ppm), −33% (p < 0.01) with NHKs exposed to UVB (10 ppm) and −65% (p < 0.01) in the experiment with NHKs exposed to UVB (15 ppm). For the same substance, the results for the “PGE2 secretion, variation compared to the control” value in the experiment with NHKs exposed to UVB (3 ppm), in the experiment on NHKs exposed to UVB (10 ppm) and in the experiment with NHKs exposed to UVB (15 ppm) were “+1% (nsd)”, −41% (p < 0.01) and −63% (p < 0.01), respectively. The results for the “Collagen I Variation %/control” value in experiment [2] (8 ppm) and in experiment [2] (10 ppm) were “+75%; p < 0.01” and “+184%; p < 0.01”, respectively. Besides, the “Collagen IV Variation %/control” value in experiment [2] (8 ppm) is recorded as “+18%; p < 0.01”; in experiment [2] (10 ppm) it was “+98%; p < 0.01”. Moreover, the entries for the “Fibronectin Variation %/control” value in experiment [2] (8 ppm) and in experiment [2] (10 ppm) were “+40%; p < 0.01” and “+67%; p < 0.01”, respectively. For the same substance, the “Terminal C peptide of pro-collagen I variation %/control” value is listed as “+61%; p < 0.01” in experiment [2] (8 ppm) and “+94%; p < 0.01” in experiment [2] (10 ppm). Also, the “Involucrin (% var vs. Control)” value in experiment [3] was “+177%; p < 0.01”.
